Test results taken from patent publication US12698463B2, “Spatially controlled fabrication of multi-spheroid tissues using magnetic bioprinting” (The Board of Trustees of the Leland Stanford Junior …, priority 2022, dated 2026).

Experiments:
neural organoids [1] = experiment: Cleaved caspase-3 immunofluorescence in adjacent neural organoids of the assembloids; format: cell-based, human; settings: 200 nM panobinostat, neural organoids fused to DIPG organoids
Protocol: Organoids and assembloids were fixed in 4% PFA for 2 hours at 4° C. They were then washed three times with DPBS, for 15 min each, and transferred to a 30% sucrose solution in DPBS for 24-48 hours at 4° C. Once the organoids or assembloids sank in the sucrose solution, they were embedded in a 1:1 mixture of OCT (Fisher Scientific) and 30% sucrose in DPBS. They were then snap frozen on dry ice and stored at −80° C. A cryostat (Leica) was used to cut 50 μm sections for immunostaining.
Cryosections were washed with DPBS to remove excess OCT, then permeabilized with 0.25% Triton X-100 (Thermo Fisher) in DPBS (DPBS-T) for 1 hour and blocked with 5% goat serum (Gibco), 5% bovine serum albumin (BSA, Sigma), and 0.5% Triton X-100 in DPBS for 3 hours, all at RT. Samples were stained with primary antibodies for GFP, (1:200, Invitrogen a11122), cleaved caspase-3 (1:400, Cell Signaling 9661), and histone H3 mutated K27M (1:400, Abcam ab190631). Primary antibodies were diluted in 2.5% goat serum, 2.5% BSA, and 0.5% Triton X-100 in DPBS and incubated with the samples overnight at 4° C., Next, the samples were washed with DPBS-T (3×30 min, RT) and incubated with secondary antibody Alexa Fluor 488 (1:500, Invitrogen, A-11034) and 4′,6-diamidino-2-phenylindole (DAPI, 5 mg/mL stock, 1:2000, Invitrogen) in the same antibody dilution solution overnight at 4° C. […]

[2] = Cellulase-mediated CNF support scaffold degradation (rheology); settings: range of cellulase concentrations, 0.5 wt % CNF, over time
Protocol: For measurements of cellulase-mediated CNF support scaffold degradation, cellulase (Sigma) was dissolved in DMEM/F12 (Gibco) and added atop 0.5 wt % CNF in a 1:4 ratio by volume to approximate the ratio of media to CNF support within the bioprinting chip. All samples were incubated in a humidified 37° C. incubator for three days. Depending on the downstream measurement, cellulase solutions, as well as non-cellulase containing DMEM/F12 controls, were either changed every day or allowed to incubate over the full three days without a media change.
Viscosity and storage moduli were obtained with an AR-G2 (TA Instruments) stress-controlled rheometer (20 mm 1° cone and plate geometry with a 28 μm gap). To observe the effect of cellulase on the viscosity of CNF over 72 hours, samples were loaded onto the stage at 37° C. for a 5 min time sweep with 1% oscillatory strain and 1 rad/s angular frequency. This was followed by a frequency sweep from 0.1 to 100 Hz at 1% strain. To measure the storage modulus, samples were loaded onto the stage at 2 hours, 4 hours, 6 hours, 24 hours, 48 hours, and 72 hours and subjected to a frequency sweep at 1 rad/s angular frequency.

neural organoids [3] = experiment: Neural organoid viability (calcein AM / ethidium homodimer) after cellulase; format: cell-based, human; settings: 0.5 wt % cellulase treatment over time
Protocol: To characterize viability, organoids were submerged in a solution consisting of DPBS supplemented with 2 μM calcein AM and 4 µM ethidium homodimer for 20 min at 37° C. The samples were washed with DPBS and imaged with an epifluorescent microscope (Leica Microsystems, THUNDER Imager 3D Cell Culture) and confocal microscope (Leica SPE).

[4] = Cellulase-mediated removal of residual CNF on extracted neural organoids; settings: 0.5 wt % cellulase, over 72 hours
Protocol: To characterize cellulase-mediated CNF degradation after neural organoid release from the support scaffold, neural organoids were first cultured in 0.5 wt % CNF support bath for 1 day and released through diluting the support bath with DPBS. A 0.5 wt % cellulase (Sigma) solution, made up in neural medium, was filtered through a 0.22 μm filter, warmed to 37° C., and added to the organoids with daily medium changes. Organoids were imaged every day with an epifluorescent microscope (Leica Microsystems, THUNDER Imager 3D Cell Culture). The area of residual CNF on the organoid surface was manually measured with ImageJ (NIH, v.2.3.0/1.53q).

## Cc1[nH]c2ccccc2c1CCNCc1ccc(/C=C/C(=O)NO)cc1 [panobinostat]
Neural organoids [1]
  cleaved caspase-3 expression (apoptosis) in adjacent neural organoids: did not exhibit substantially increased cleaved caspase-3 expression
Neural organoids [1]; listed as Panobinostat
  cleaved caspase-3 expression (apoptosis) in adjacent neural organoids: does not induce substantial apoptosis

## cellulase
[2]
  viscosity and storage modulus of CNF support after cellulase: stepwise decreases in both viscosity and storage modulus
Neural organoids [3]
  organoid viability: does not affect organoid viability
[4]
  residual CNF removed from organoid surface: over 98%
